Tests used:
human orexin-2 receptor = human orexin-2 receptor (Homo sapiens (Human), UniProt O43614); assay: FLIPR Ca2+ Flux Assay, orexin-2 receptor (hOX2R FLIPR); type: cell-based; conditions: CHO cells expressing the human orexin-2 receptor; agonist 70 pM Ala-6,12 human orexin-A
Experimental: (§1) The utility of the compounds in accordance with the present invention as orexin receptor OX1R and/or OX2R antagonists may be readily determined without undue experimentation by methodology well known in the art, including the “FLIPR Ca^2+ Flux Assay” (Okumura et al., Biochem. Biophys. Res. Comm. 280:976-981, 2001). In a typical experiment the OX1 and OX2 receptor antagonistic activity of the compounds of the present invention was determined in accordance with the following experimental method. For intracellular calcium measurements, Chinese hamster ovary (CHO) cells expressing the rat orexin-1 receptor or the human orexin-2 receptor, are grown in Iscove's modified DMEM containing 2 mM L-glutamine, […], 1% hypoxanthine-thymidine supplement, 100 U/ml penicillin, 100 μg/ml streptomycin and 10% heat-inactivated fetal calf serum (FCS). The cells are seeded at 20,000 cells/well into Becton-Dickinson black 384-well clear bottom sterile plates coated with poly-D-lysine. All reagents were from GIBCO-Invitrogen Corp. The seeded plates are incubated overnight at 37° C. and 5% CO2. Ala-6,12 human orexin-A as the agonist is prepared as a 1 mM stock solution in 1% bovine serum albumin (BSA) and diluted in assay buffer (HBSS containing 20 mM HEPES, 0.1% BSA and 2.5 mM probenecid, pH7.4) for use in the assay at a final concentration of 70 pM. Test compounds are prepared as 10 mM stock solution in DMSO, then diluted in 384-well plates, first in DMSO, then assay buffer. On the day of the assay, cells are washed 3 times with 100 μl assay buffer and then incubated for 60 min (37° C., 5% CO2) in 60 μl assay buffer containing 1 μM Fluo-4AM ester, 0.02% pluronic acid, and 1% BSA. The dye loading solution is then aspirated and cells are washed 3 times with 100 μl assay buffer. 30 μl of that same buffer is left in each well. Within the Fluorescent Imaging Plate Reader (FLIPR, Molecular Devices), test compounds are added to the plate in a volume of 25 μl, incubated for 5 min and finally 25 μl of agonist is added. Fluorescence is measured for each well at 1 second intervals for 5 minutes and the height of each fluorescence peak is compared to the height of the fluorescence peak induced by 70 pM Ala-6,12 orexin-A with buffer in place of antagonist. For each antagonist, IC50 value (the concentration of compound needed to inhibit 50% of the agonist response) is determined. Alternatively, compound potency can be assessed by a radioligand binding assay (described in Bergman et. al. Bioorg. Med. Chem. Lett. 2008, 18, 1425-1430) in which the inhibition constant (Ki) is determined in membranes prepared from CHO cells expressing either the OX1 or OX2 receptor. The intrinsic orexin receptor antagonist activity of a compound which may be used in the present invention may be determined by these assays.

[1] = molecular target: hOXIR (orexin-1 receptor) (Homo sapiens, UniProt O43613); assay: FLIPR Ca2+ Flux Assay, orexin-1 receptor (hOXIR FLIPR); type: cell-based; conditions: CHO cells expressing the orexin-1 receptor (method text: rat; table head: hOXIR); agonist 70 pM Ala-6,12 human orexin-A
Experimental: as §1

human orexin-2 receptor, sequence (O43614 whole entry): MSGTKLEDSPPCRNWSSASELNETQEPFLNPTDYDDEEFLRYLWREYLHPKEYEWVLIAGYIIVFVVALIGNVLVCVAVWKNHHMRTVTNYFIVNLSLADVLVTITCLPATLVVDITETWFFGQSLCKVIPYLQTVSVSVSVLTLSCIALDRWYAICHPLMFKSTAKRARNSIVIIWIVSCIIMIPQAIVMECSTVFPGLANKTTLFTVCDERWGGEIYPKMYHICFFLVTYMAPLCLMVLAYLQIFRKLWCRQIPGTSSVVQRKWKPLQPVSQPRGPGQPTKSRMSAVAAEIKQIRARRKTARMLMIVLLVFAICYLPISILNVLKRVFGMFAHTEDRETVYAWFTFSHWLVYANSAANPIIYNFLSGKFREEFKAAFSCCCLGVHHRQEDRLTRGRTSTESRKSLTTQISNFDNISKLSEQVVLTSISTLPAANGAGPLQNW

Structure (SMILES) | IC50 (human orexin-2 receptor) [nM] | IC50 [1] [nM]
C[C@@H]1CC[C@@H](n2cc([C@H](O)C(F)(F)F)cn2)CN1C(=O)c1ccccc1-n1nccn1 [Example 103, (1S)-2,2,2-Trifluoro-1-{1-[(3R,6R)-6-methyl-1-{[2-(2H-1,2,3-triazol-2-yl)phenyl]carbonyl}piperidin-3-yl]-1H-pyrazol-4-yl}ethanol] | 102 | > 10000
C[C@@H]1CC[C@@H](n2cc(C(C)(C)O)cn2)CN1C(=O)c1cccnc1-c1ccccc1 [Example 92, 2-(1-{(3R,6R)-6-Methyl-1-[(2-phenylpyridin-3-yl)carbonyl]piperidin-3-yl}-1H-pyrazol-4-yl)propan-2-ol] | 195 | > 10000
CCCc1ccccc1C(=O)N1C[C@H](n2ncc(C(C)(C)O)n2)CC[C@H]1C [Example 4, ((2R,5R)-5-(4-(2-Hydroxypropan-2-yl)-2H-1,2,3-triazol-2-yl)-2-methylpiperidin-1-yl)(2-propylphenyl)methanone] | 15.9 | 8110
C[C@@H]1CC[C@@H](n2cc(C(C)(C)O)cn2)CN1C(=O)c1ccccc1CC(F)F [Example 99, 2-{1-[(3R,6R)-1-{[2-(2,2-Difluoroethyl)phenyl]carbonyl}-6-methylpiperidin-3-yl]-1H-pyrazol-4-yl}propan-2-ol] | 38.4 | > 10000
C[C@@H]1CC[C@@H](n2cc(C(C)(C)O)cn2)CN1C(=O)c1ccccc1[C@H]1CC1(F)F [Example 86, 2-{1-[(3R,6R)-1-({2-[(1R)-2,2-Difluorocyclopropyl]phenyl}carbonyl)-6-methylpiperidin-3-yl]-1H-pyrazol-4-yl}propan-2-ol] | 152 | > 10000
C[C@@H]1CC[C@@H](n2ncc(C(C)(C)O)n2)CN1C(=O)c1ccccc1C1CC1 [Example 6, (2-Cyclopropylphenyl)((2R,5R)-5-(4-(2-hydroxypropan-2-yl)-2H-1,2,3-triazol-2-yl)-2-methylpiperidin-1-yl)methanone] | 14.9 | 2460
CCCc1ccccc1C(=O)N1C[C@H](n2cc(C(C)(C)O)cn2)CC[C@H]1C [Example 76, 2-(1-{(3R,6R)-6-Methyl-1-[(2-propylphenyl)carbonyl]piperidin-3-yl}-1H-pyrazol-4-yl)propan-2-ol] | 52.3 | > 10000
C[C@@H]1CC[C@@H](n2ncc(Br)n2)CN1C(=O)c1ccccc1-n1nccn1 [Example 29, (2-(2H-1,2,3-triazol-2-yl)phenyl)((2R,5R)-5-(4-bromo-2H-1,2,3-triazol-2-yl)-2-methylpiperidin-1-yl)methanone] | 362 | > 10000
C[C@@H]1CC[C@@H](n2ncc(C(C)(C)O)n2)CN1C(=O)c1ccccc1OC(F)(F)F [Example 19, ((2R,5R)-5-(4-(2-Hydroxypropan-2-yl)-2H-1,2,3-triazol-2-yl)-2-methylpiperidin-1-yl)(2-(trifluoromethoxy)phenyl)methanone] | 12.1 | 2800
C[C@@H]1CC[C@@H](n2cc(C(C)(C)O)cn2)CN1C(=O)c1ccccc1OC(F)F [Example 84, 2-{1-[(3R,6R)-1-{[2-(Difluoromethoxy)phenyl]carbonyl}-6-methylpiperidin-3-yl]-1H-pyrazol-4-yl}propan-2-ol] | 464 | > 10000
C[C@@H]1CC[C@@H](n2nnc(C(C)(C)O)n2)CN1C(=O)c1ccccc1-n1nccn1 [Example 74, 2-{2-[(3R,6R)-6-Methyl-1-{[2-(2H-1,2,3-triazol-2-yl)phenyl]carbonyl}piperidin-3-yl]-2H-tetrazol-5-yl}propan-2-ol] | 44.9 | > 10000
Cc1noc(-c2c(F)cccc2C(=O)N2C[C@H](n3ncc(C(C)(C)O)n3)CC[C@H]2C)n1 [Example 48, 2-{2-[(3R,6R)-1-{[3-fluoro-2-(3-methyl-1,2,4-oxadiazol-5-yl)phenyl]carbonyl}-6-methylpiperidin-3-yl]-2H-1,2,3-triazol-4-yl}propan-2-ol] | 136 | > 10000
C[C@@H]1CC[C@@H](n2ncc(C(C)(C)O)n2)CN1C(=O)c1sccc1-n1nccn1 [Example 32, 2-{2-[(3R,6R)-6-methyl-1-{[3-(2H-1,2,3-triazol-2-yl)thiophen-2-yl]carbonyl}piperidin-3-yl]-2H-1,2,3-triazol-4-yl}propan-2-ol] | 89.6 | > 10000
Cc1noc(-c2ccc(F)cc2C(=O)N2C[C@H](n3ncc(C(C)(C)O)n3)CC[C@H]2C)n1 [Example 35, 2-{2-[(3R,6R)-1-{[5-fluoro-2-(3-methyl-1,2,4-oxadiazol-5-yl)phenyl]carbonyl}-6-methylpiperidin-3-yl]-2H-1,2,3-triazol-4-yl}propan-2-ol] | 593 | > 10000
Cc1nc(-c2c(F)cccc2C(=O)N2C[C@H](n3ncc(C(C)(C)O)n3)CC[C@H]2C)no1 [Example 37, 2-{2-[(3R,6R)-1-{[3-fluoro-2-(5-methyl-1,2,4-oxadiazol-3-yl)phenyl]carbonyl}-6-methylpiperidin-3-yl]-2H-1,2,3-triazol-4-yl}propan-2-ol] | 75.2 | > 10000
C[C@@H]1CC[C@@H](n2cc(C(C)(C)O)cn2)CN1C(=O)c1ccccc1C1CC1 [Example 78, 2-(1-{(3R,6R)-1-[(2-Cyclopropylphenyl)carbonyl]-6-methylpiperidin-3-yl}-1H-pyrazol-4-yl)propan-2-ol] | 25.5 | > 10000
CC(O)c1cnn([C@@H]2CC[C@@H](C)N(C(=O)c3cccnc3OCC(F)F)C2)n1 (stereo partly drawn) [Example 61, 1-{2-[(3R,6R)-1-{[2-(2,2-Difluoroethoxy)pyridin-3-yl]carbonyl}-6-methylpiperidin-3-yl]-2H-1,2,3-triazol-4-yl}ethanol] | 681 | > 10000
Cc1nn([C@@H]2CC[C@@H](C)N(C(=O)c3cccnc3OC(C)C)C2)nc1C(C)(C)O [Example 63, 2-{5-Methyl-2-[(3R,6R)-6-methyl-1-{[2-(1-methylethoxy)pyridin-3-yl]carbonyl}piperidin-3-yl]-2H-1,2,3-triazol-4-yl}propan-2-ol] | 15.9 | 3350
C[C@@H]1CC[C@@H](n2cc(C(C)(C)O)cn2)CN1C(=O)c1ccccc1SC(F)(F)F [Example 88, 2-{1-[(3R,6R)-6-Methyl-1-({2-[(trifluoromethyl)sulfanyl]phenyl}carbonyl)piperidin-3-yl]-1H-pyrazol-4-yl}propan-2-ol] | 15.2 | 7930
C[C@@H]1CC[C@@H](n2cc(C(C)(C)O)cn2)CN1C(=O)c1cccnc1OCC(F)F [Example 98, 2-{1-[(3R,6R)-1-{[2-(2,2-Difluoroethoxy)pyridin-3-yl]carbonyl}-6-methylpiperidin-3-yl]-1H-pyrazol-4-yl}propan-2-ol] | 58.8 | > 10000
Cc1nn([C@@H]2CC[C@@H](C)N(C(=O)c3ccccc3OC(F)(F)F)C2)nc1C(C)(C)O [Example 67, 2-{5-Methyl-2-[(3R,6R)-6-methyl-1-{[2-(trifluoromethoxy)phenyl]carbonyl}piperidin-3-yl]-2H-1,2,3-triazol-4-yl}propan-2-ol] | 10.1 | 1150
C[C@@H]1CC[C@@H](n2ncc(C(C)(C)O)n2)CN1C(=O)c1ccccc1CC(F)(F)F [Example 9, ((2R,5R)-5-(4-(2-Hydroxypropan-2-yl)-2H-1,2,3-triazol-2-yl)-2-methylpiperidin-1-yl)(2-(2,2,2-trifluoroethyl)phenyl)methanone] | 30 | > 10000
Cc1nn([C@@H]2CC[C@@H](C)N(C(=O)c3ccc(F)cc3-n3nccn3)C2)nc1C(C)(C)O [Example 72, 2-{2-[(3R,6R)-1-{[4-Fluoro-2-(2H-1,2,3-triazol-2-yl)phenyl]carbonyl}-6-methylpiperidin-3-yl]-5-methyl-2H-1,2,3-triazol-4-yl}propan-2-ol] | 15.2 | 1290
CC(C)c1ccccc1C(=O)N1C[C@H](n2ncc(C(C)(C)O)n2)CC[C@H]1C [Example 5, ((2R,5R)-5-(4-(2-Hydroxypropan-2-yl)-2H-1,2,3-triazol-2-yl)-2-methylpiperidin-1-yl)(2-isopropylphenyl)methanone] | 71.3 | > 10000
